Values of other authors, collected in US20060160230A1, “Wipes and methods for removal of metal contamination from surfaces” (The Government of the United States of America as …, priority 2005, published 2006).

Key:
[1] = 10% citric acid lotion applied topically for a three month period (Bernstein et al. 1997)
[2] = 1999; rinse-off cosmetic products

Row | Compound | clinical signs of adverse effects [1] | safety conclusion of CIR Expert Panel [2]
1 | O=C(O)CC(O)(CC(=O)O)C(=O)O [citric acid] | No clinical signs of adverse effects | 
2 | isostearamidopropyl morpholine lactate [ISML] |  | considered safe for use in rinse-off cosmetic products
